# Measurements from publication PMC4447598 (Annals of neurology, 2015).
# Where “and” joins values, the source holds several entries; their conditions need not be identical. Identical values can stand only once.
# Legend:
# APP/Aβ = test: APP metabolism and Aβ accumulation in brain of treated mice; assay type: in vivo, mouse; conditions: 5 mg/kg/d
# APP/PS1 transgenic mice [1] = test: Synapse density in dentate gyrus; assay type: in vivo, mouse; conditions: 5 mg/kg/d, 7 weeks
# [2] = ref [27]; cited from earlier work
# [3] = AZD0530 pharmacokinetics in mice; assay type: in vivo, mouse
# Pyk2 [4] = test: Activated pPyk2 levels in brain of APP/PS1 and WT mice; assay type: in vivo, mouse
# Tau = Tau biochemistry and histology in 3xTg-AD mice; assay type: in vivo, mouse
# APP/PS1 transgenic mice [5] = test: Glial reaction in cortex; assay type: in vivo, mouse; conditions: 5 mg/kg/d, 7 weeks
# Pyk2 [6] = test: Acute brain slice assay, p-Pyk2; assay type: cell-based, mouse
# Pyk2 [7] = molecular target: Pyk2 (Homo sapiens, UniProt Q14289); test: LanthaScreen Europium Kinase Binding Assay
# [8] = test system: NR2B subunit of NMDA-type Glu receptors; test: Acute brain slice assay, pY-1472 NR2B immunoblot relative to total NR2B; assay type: cell-based, mouse
# APP/PS1 transgenic mice [9] = test: Morris water maze; assay type: in vivo, mouse
# Chronic = assay type: in vivo, beagle dogs
# APP/PS1 transgenic mice [10] = test: Novel object recognition; assay type: in vivo, mouse; conditions: 5 mg/kg/d, 6 weeks treatment
# [11] = RIPA extracts of TBS-insoluble material, 5 mg/kg/d 40 days
# [12] = RIPA-insoluble fractions, 5 mg/kg/d 40 days
# [13] = APP/PS1 mice, 5 mg/kg/d, 1-2 weeks treatment
# [14] = APP/PS1 mice, 5 mg/kg/d, 3-5 weeks treatment
# Sequence of Pyk2 (Homo sapiens, UniProt Q14289) (Q14289 whole entry): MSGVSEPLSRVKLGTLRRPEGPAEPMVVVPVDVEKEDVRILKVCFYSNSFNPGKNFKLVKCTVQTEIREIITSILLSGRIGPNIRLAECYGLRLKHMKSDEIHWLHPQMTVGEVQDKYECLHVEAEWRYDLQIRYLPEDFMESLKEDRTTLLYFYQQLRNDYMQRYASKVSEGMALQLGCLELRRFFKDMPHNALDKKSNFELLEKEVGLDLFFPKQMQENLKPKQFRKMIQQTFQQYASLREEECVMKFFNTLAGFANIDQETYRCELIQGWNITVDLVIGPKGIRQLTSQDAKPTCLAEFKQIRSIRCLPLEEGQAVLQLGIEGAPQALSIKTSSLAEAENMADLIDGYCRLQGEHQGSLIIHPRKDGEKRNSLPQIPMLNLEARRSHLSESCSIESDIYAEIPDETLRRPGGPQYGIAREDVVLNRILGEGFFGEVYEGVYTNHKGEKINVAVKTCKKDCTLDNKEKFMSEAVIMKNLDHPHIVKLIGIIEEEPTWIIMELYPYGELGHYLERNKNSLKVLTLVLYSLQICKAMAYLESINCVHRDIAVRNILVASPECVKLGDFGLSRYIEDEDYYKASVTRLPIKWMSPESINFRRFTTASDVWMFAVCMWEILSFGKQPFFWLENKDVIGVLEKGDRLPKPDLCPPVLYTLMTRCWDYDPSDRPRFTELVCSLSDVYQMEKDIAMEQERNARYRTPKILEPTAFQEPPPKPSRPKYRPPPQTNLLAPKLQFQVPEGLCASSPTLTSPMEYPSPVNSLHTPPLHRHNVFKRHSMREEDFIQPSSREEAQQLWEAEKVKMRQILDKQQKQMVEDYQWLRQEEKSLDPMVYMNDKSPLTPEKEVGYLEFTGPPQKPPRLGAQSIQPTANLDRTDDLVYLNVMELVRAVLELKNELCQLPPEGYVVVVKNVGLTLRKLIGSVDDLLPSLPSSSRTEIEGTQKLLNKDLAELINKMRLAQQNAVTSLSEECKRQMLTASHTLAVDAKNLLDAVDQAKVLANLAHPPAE
compound,measurement,setting,value
"CN1CCN(CCOc2cc(OC3CCOCC3)c3c(Nc4c(Cl)ccc5c4OCO5)ncnc3c2)CC1 [AZD0530, N-(5-chloro-1,3-benzodioxol-4-yl)-7-[2-(4-methylpiperazin-1-yl)ethoxy]-5-(tetrahydro-2H-pyran-4-yloxy)quinazolin-4-amine]",APP/Aβ metabolism,"APP/Aβ; 3xTg-AD mice, data not shown",no effect
same,"APP fragments, Aβ plaque and different Aβ species vs vehicle-treated transgenic mice","APP/Aβ; APP/PS1 mice, 7 weeks",no difference
same,"synapse density (PSD-95, SV2a puncta)",APP/PS1 transgenic mice [1]; APP/PS1 transgenic mice,fully restores synaptic puncta to WT levels
same,"synapse density (PSD-95, SV2a puncta)",APP/PS1 transgenic mice [1]; WT mice,does not alter synapse density
same,half-life of the compound in humans,[2],between one and two days
same,inhibition at 5 mg/kg/day,"[3]; Mus musculus, po, read-out: expected inhibition of Fyn kinase activity in brain",≥ 50%
same,apparent brain half-life,"[3]; mouse, 5 mg/kg/d for 3 days",16 h
same,peak brain level,"[3]; mouse, 5 mg/kg/d oral b.i.d., 30-60 min after dosing, 5 mg/kg/day",27 ng/g and 50 nM
same,peak CSF level,"[3]; mouse, 5 mg/kg/d, one pooled sample, 5 mg/kg/day",7 ng/ml and 13 nM
same,CSF level as % of brain level,"[3]; mouse, 6 oral b.i.d. doses, 30-60 min after dosing",about 35%
same,concentration at 12 h,"[3]; mouse, CSF, oral, 5 mg/kg/day, trough CSF range calculated from multiple brain samples, 5 mg/kg/d",3.1 ng/mL to 7.6 ng/mL and 5.8 nM to 14 nM
same,half-life,"[3]; mouse, brain, oral, 5 mg/kg/day, apparent brain half-life, 5 mg/kg/d for 3 days",~16 h
same,increase of p(Y402)Pyk2 in hippocampal CA1 and CA3 cell body layers (histology),"Pyk2 [4]; APP/PS1 mice, 5 mg/kg/d for 7 weeks",reversed by AZD0530 treatment
same,pPyk2 level,Pyk2 [4]; WT mice,does not significantly alter pPyk2
same,"activated pPyk2 level (immunoblot), hippocampus","Pyk2 [4]; aged APP/PS1 mice, 5 mg/kg/d",reduces activated pPyk2 level to that of WT mice exposed to vehicle
same,human Tau transgene mRNA (qRT-PCR),"Tau; 3xTg-AD mice, 5 mg/kg/d, data not shown",not changed
same,decrease of pTau pS396 vs control 3xTg,Tau; [11],53%
same,decrease of total Tau vs control 3xTg,Tau; [11],74%
same,decrease of insoluble human Tau,Tau; [12],56%
same,decrease of insoluble total Tau,Tau; [12],41%
same,astrocytic reaction (GFAP),APP/PS1 transgenic mice [5],no significant change
same,extent of microglial induction (Iba1),APP/PS1 transgenic mice [5],significantly reduced
same,basal Pyk2 activation,Pyk2 [6]; brain slices without Aβo,suppresses
same,Aβo stimulation of Pyk2 activation,"Pyk2 [6]; brain slices, 1 μM Aβo 30 min",blocks
same,IC50,Pyk2 [7],> 250 µM
same,Pyk2 substrate binding,Pyk2 [7]; AZD0530 at concentrations up to 100 μM,unaffected
same,basal phosphorylation of NR2B,[8]; brain slices without Aβo,suppresses
same,Aβo-induced phosphorylation of NR2B,"[8]; brain slices, 1 μM Aβo 30 min",full blocks
same,water maze performance,"APP/PS1 transgenic mice [9]; APP/PS1 mice, 2 mg/kg/d, 3-5 weeks treatment",fails to improve water maze performance
same,impaired rate of acquisition during swims to a hidden platform,APP/PS1 transgenic mice [9]; [13],no improvement
same,memory recall during 60 sec probe trial,APP/PS1 transgenic mice [9]; [13],no improvement
same,latencies to the hidden platform (spatial learning),APP/PS1 transgenic mice [9]; [14],eliminates the pre-existing transgenic deficit
same,"probe trial, preference for target quadrant",APP/PS1 transgenic mice [9]; [14],same strong preference for the target quadrant as do WT mice
same,latencies to a hidden platform,"APP/PS1 transgenic mice [9]; WT mice, 5 mg/kg/d",not altered
same,NOAEL at 273 days,"Chronic; both, beagle, dog, in vivo, po",> 5 mg/kg/day
same,"body weight, hematological and coagulation parameters vs vehicle","Chronic; dog, 0.5, 2 or 5 mg/kg/d, 273 days",no statistically significant difference
same,tolerability,"Chronic; dog, 39 weeks oral gavage at 0.5, 2 and 5 mg/kg/day",tolerated at all dose levels tested
same,abnormal measurement or pathology,"Chronic; dog, any group including 5 mg/kg/d, 273 days",No significantly abnormal measurement or evidence of pathology was detected
same,Novel Object Recognition performance,APP/PS1 transgenic mice [10],performance equal to the WT mice
